Measurements as given in patent US20160081959A1 (Glanbia plc, priority 2014, published 2016).
Like-named read-outs stand apart in the source and are kept apart here.

Columns and labels:
[1] = tested on: wound healing; settings: 17 g/day, after two weeks, cited from earlier work
[2] = tested on: wounds; settings: ingested; mice; cited from earlier work
[3] = Single dose oral pharmacokinetic study in fasted male Sprague Dawley rats (arginine in plasma, LC-MS/MS); format: in vivo
Method: Oral PK was determined in rats for ASI and several comparative compounds.
Test system: Sprague Dawley rats, male. Aged 7-9 weeks at the time of receipt.
Sample size: Study groups—4 groups per study; 5 animals/group.
The test compounds were administered through oral gavage. Oral route of administration is one of the preferred routes of administration in humans.
(§1) Study Group 1: Single dose oral pharmacokinetic study of ResArgin in male Sprague Dawley rats at a dose equivalent to 500 mg of L-Arginine/kg body weight. Male Sprague Dawley Rats aged 8-10 weeks were used for experimentation after a minimum 3 days of acclimatization. Fasted animals were administered ResArgin in a recommended vehicle (0.5% (w/v) Carboxymethylcellulose in sterile water) by oral route with a dose equivalent to 500 mg L-Arginine/kg body weight at dose volume of 10 mL/kg body weight.
Under mild isoflurane anesthesia, blood specimens were collected at time points (0.0 h, 0.16 h, 0.25 h, 0.50 h, 1.00 h, 2.00 h, 4.00 h, 6.00 h) post-dose as mentioned in Table 1 into pre-labeled tubes containing anticoagulant (K2EDTA—2 mg/mL blood) during the next 24 hours. Collected blood specimens were centrifuged at 4000 rpm, 4° C. for 10 minutes and plasma was separated and stored at −80° C. until analysis.
Study Group 2: Single dose oral pharmacokinetic study of L-Arginine in male Sprague Dawley rats at a dose of 500 mg/kg body weight. Male Sprague Dawley Rat aged 8-10 weeks were used for experimentation after a minimum 3 days of acclimatization. Fasted animals were administered L-Arginine in a recommended vehicle (0.5% (w/v) Carboxymethylcellulose in sterile water by oral route with 500 mg/kg body weight at dose volume of 10 mL/kg body weight.
as §1, with “3:” for “1:”, “L-Arginine HCl” for “ResArgin”
Male Sprague Dawley Rats aged 8-10 weeks were used for experimentation after a minimum 3 days of acclimatization.
Bioanalytical method(s) for the determination of arginine in Rat plasma were developed using LC-MS/MS. The developed methods were used for plasma sample analysis. Chromatograms were acquired using Analyst® software version 1.4.2. The concentration of the unknown sample was calculated from the following equation using regression analysis with peak area ratio of standard and ISD vs calibration standards concentration, using weighting factor (1/x^2) in accordance with Equation (1): […]
The pharmacokinetic parameters including Cmax, Tmax, AUC0-t, AUC0-inf, T1/2 and MRTlast of the arginine in rat plasma were determined from the concentration time data by using non-compartmental analysis (Phoenix WinNonlin 6.3, Pharsight Corporation, Princeton, N.J., USA).
Statistical analysis of PK parameters was performed by one way ANOVA followed by Dunnett's Post Test (L-Arginine Base vs ResArgin, L-Arginine HCl, and Arginine Silicate Inositol, respectively).

[4] = tested on: vasodilatory response; settings: in vivo; cited from earlier work
[5] = tested on: blood proteins related to vasodilation and heart health; assay: Blood proteins after ASI treatment; settings: in vivo
[6] = Human clinical PK/PD/safety study of Nitrosigine (plasma arginine, serum silicon); format: in vivo
Description: See, Kalman D, Feldman S, Samson A, Krieger D., “A clinical evaluation to determine the safety, pharmacokinetics and pharmacodynamics of an inositol-stabilized arginine silicate dietary supplement in healthy adult males,” The FASEB Journal (April 2014) 28(1 Suppl.): LB418.
Purpose: The purpose of this study was to characterize the PK/PD of Nitrosigine®, an inositol-stabilized arginine silicate dietary supplement.
Type: Prospective, pharmacokinetic (PK)/pharmacodynamic (PD)/safety clinical trial.
Dosing: Nitrosigine® was administered as daily doses of 1,500 mg (3×500 mg tablets).
Visit 2: single dose evaluation (0-6 hrs), 1500 mg—this was also utilized as the first dose of the 14 day study. It is noted in addition that Visit 2 is also the beginning of the 14 day study, during which subjects take product once a day for 14 days.
Visit 3: 14 days later, single dose (0-6 hrs)
PK Measurements: Plasma arginine and serum silicon levels were measured after the first dose on Day 1 and again after a dose taken on Day 14, after 14 days of dosing.

[7] = tested on: muscle soreness, muscle damage, and recovery; assay: Example 3: clinical study of muscle soreness, muscle damage and recovery; format: in vivo, human; settings: ASI 750 mg 2×/day for 14 days with training regimen; expected
Method: Clinical Study to measure muscle soreness, muscle damage, and recovery. Crossover PCT.
Study group: n=16 males exercising <150 mins/week.
Secondary endpoints: NO level, blood pressure, heart rate, leg circumference, patient survey/self-assessment, e.g., visual analog scale (VAS) for pain, intramuscular biopsy.

[8] = tested on: wound healing; assay: Example 2: topical ASI hydrogel, Vits, et al. ablative laser wound protocol; format: in vivo, human; settings: expected
Method: Wound 1 (2013) December 30.
The Vits, et al. protocol is used as follows. In 22 healthy men (experimental group, n=11; control group, n=11) wounds are induced by ablative laser on both thighs. Hydrogel (placebo) is applied on one of the two wounds, and Hydrogel (containing ASI) is applied on the wound of the other thigh. Progress in wound healing was documented via planimetry on days 1, 4 and 7 after wound induction. From day 9 onwards wound inspections were performed daily accompanied by a change of the dressing and a new application of the gel.

[9] = tested on: wound healing; assay: Example 1: oral ASI, Kirk, et al. wound healing protocol in human volunteers; format: in vivo; settings: ASI 1500 mg daily, 2 weeks; expected
Method: The Kirk, et al. protocol is used as follows. […] Fifteen volunteers receive a placebo tablet. Fibroplastic wound responses are assessed by inserting a polytetrafluoroethylene catheter subcutaneously into the right deltoid region. Epithelialization is examined by creating a 2×2 cm split thickness wound on the lateral aspect of the upper thigh. Mitogenic response of peripheral blood lymphocytes to concanavalin A, phytohemagglutinin, pokeweed mitogen, and allogeneic stimuli is assayed at the beginning and end of supplementation. Polytetrafluoroethylene catheters were analyzed for alpha-amino nitrogen (assessment of total protein accumulation), hydroxyproline (index of reparative collagen synthesis), and DNA accumulation (index of cellular infiltration).

[10] = tested on: Nitric oxide (NO) levels; assay: Nitric oxide levels by salivary test strips in the human clinical study; format: in vivo
Method: NO was measured using salivary test strips, using a color scale for “Depleted”, “Low”, and “Normal” levels. […] Six subjects who were “Depleted” at Visit 2 increased to “Low” at Visit 3, while no subjects went from “Low” at Visit 2 to “Depleted” at Visit 3. In addition, the Visit 3 treatment after 1 hr gave 3 subjects “Depleted”, 4 subjects “Low”, and 3 subjects “Normal.” This “asymmetric” change pattern was statistically significant (p=0.031).

[11] = arginine in plasma, fasted male Sprague Dawley rats, single oral dose equivalent to 500 mg L-Arginine/kg b.w.
[12] = rat, 500 mg/kg, arginine in plasma, fasted male Sprague Dawley rats, single oral dose equivalent to 500 mg L-Arginine/kg b.w.
[13] = rat, 500 mg/kg, arginine in plasma, fasted male Sprague Dawley rats, single oral dose equivalent to 500 mg L-Arginine/kg b.w., read-out: Cmax
[14] = rat, 500 mg/kg, arginine in plasma, fasted male Sprague Dawley rats, single oral dose equivalent to 500 mg L-Arginine/kg b.w., read-out: Tmax
[15] = plasma arginine, rat, oral, 500 mg/kg L-Arginine equivalent

N=C(N)NCCC[C@H](N)C(=O)O [arginine, L-arginine]
hydroxyproline and protein accumulation at the wound site vs non-supplemented controls ([1]; 30 elderly patients): significantly greater
IGF-1 [1]: elevated
lymphocyte response [1]: elevated

O=[Si]=O [silica]
closing and healing of wounds [2]: effective at helping to close and heal wounds

Cl.N=C(N)NCCC[C@H](N)C(=O)O [L-Arginine HCl, L-Arginine hydrochloride]
AUC% extrap [3, 11]: 27.645 ± 23.5890%
AUC(0-inf) [3, 12]: 442 ± 122 µg·h/mL
AUC(0-t) [3, 12]: 306 ± 92.7 µg·h/mL
MRT last [3, 12]: 2.48 ± 0.368 h
half-life [3, 12]: 3.08 ± 2.08 h
Cmax [3, 13]: 94.7 ± 26.2 µg/mL
Tmax [3, 14]: 1.1 ± 0.548 h
amount that induces a significant vasodilatory response [4]: ca. 5 grams

arginine silicate inositol [ASI]
effect on blood proteins related to vasodilation and heart health [5]: significantly enhances
adverse events related to the study medication ([6]; 1,500 mg daily for 14 days, 10 subjects): No adverse events related to the study medication
increase of plasma arginine concentration relative to baseline ([6]; in 30 minutes, single dose 1,500 mg, human): greater than 30%
Arginine absorption: Tmax Day 1 ([6]; plasma arginine, 10 healthy males, 1,500 mg oral, Day 1): 1.05 ± 0.50 h
Silicon absorption: Tmax Day 1 ([6]; serum silicon, 10 healthy males, 1,500 mg oral, Day 1): 2.15 ± 1.75 h
duration of significantly raised blood arginine and silicon levels ([6]; single dose, human): up to 3 hours
AUC% extrap [3, 11]: 16.987 ± 10.5790%
AUCinf [3, 11]: 1499.898 ± 233.6230 µg·h/mL
AUClast [3, 11]: 1248.990 ± 276.1000 µg·h/mL
Cmax [3, 11]: 474.300 ± 169.1040 µg/mL
MRTlast [3, 11]: 2.220 ± 0.2450 h
T1/2 [3, 11]: 2.159 ± 0.8280 h
Tmax [3, 11]: 1.100 ± 0.5480 h
AUCinf increase compared with Arginine base [3, 15]: 3 fold
AUCinf increase over Arginine base in plasma [3, 15]: 209%
Cmax increase compared with Arginine base [3, 15]: 2.35 fold
Cmax increase over Arginine base in plasma [3, 15]: 135%
cytokine markers of inflammation [7]: decrease or improvement
listed measurement parameters (e.g. NO levels) [7]: improve
wound healing of wounds treated with ASI-containing gel vs placebo hydrogel [8]: more rapid improvement in wound healing
amount with which similar vasodilatory responses have been shown [4]: 750 mg
rate of epithelialization of the skin defect vs placebo [9]: significantly enhanced
rate of wound healing vs placebo [9]: increased
serum insulin-like growth factor-1 (IGF-1) levels [9]: significantly elevated
wound catheter hydroxyproline accumulation and total protein content vs placebo [9]: increase
change in NO levels after 14 days of administration ([10]; 1,500 mg/day for two weeks, Visit 2 vs Visit 3): significant increase
subjects with NO level Depleted ([10]; Visit 3 treatment after 1 hr): 3 subjects
subjects with NO level Low ([10]; Visit 3 treatment after 1 hr): 4 subjects
subjects with NO level Normal ([10]; Visit 3 treatment after 1 hr): 3 subjects
subjects who were Depleted at Visit 2 and increased to Low at Visit 3 ([10]; salivary NO strips, 10 subjects, 14 days daily dosing): Six

N=C(N)NCCC[C@H](N)C(=O)O [L-Arginine Base, L-Arginine]
AUC% extrap [3, 11]: 8.195 ± 5.9280%
AUC(0-inf) [3, 12]: 486 ± 114 µg·h/mL
AUC(0-t) [3, 12]: 445 ± 106 µg·h/mL
MRT last [3, 12]: 1.66 ± 0.34 h
half-life [3, 12]: 1.41 ± 0.51 h
Cmax [3, 13]: 202 ± 54.3 µg/mL
Tmax [3, 14]: 0.65 ± 0.335 h
amount that induces a significant vasodilatory response [4]: ca. 5 grams
